pEC50, pIC50: −log10 of the molar value. Like-named read-outs stand apart in the source and are kept apart here.
Key:
SARS-CoV-2 = assay: microbe, parasite or virus in culture; type: cell-based; details: 50% SARS-CoV-2 infected cell death inhibitory concentration, VeroE6/TMPRSS2 cells, 3 days culture
SARS-CoV-2 3CL protease = SARS-CoV-2 3CL protease (Severe acute respiratory syndrome coronavirus 2, UniProt P0DTD1); assay: biochemical; details: 50% SARS-CoV-2 3CL protease inhibitory concentration, read-out: IC50
[1] = Severe acute respiratory syndrome coronavirus 2, VeroE6/TMPRSS2, 72 h, CellTiter-Glo 2.0
[2] = Severe acute respiratory syndrome coronavirus 2, VeroE6/TMPRSS2, 72 h, class symbols

Compound | pEC50 (SARS-CoV-2; [1]) | pIC50 (SARS-CoV-2 3CL protease; RapidFire MS) | pEC50 (SARS-CoV-2; [2]) | pIC50 (SARS-CoV-2 3CL protease; given as class symbols) | pEC50 (SARS-CoV-2; class symbols)
Cn1cc2cc(Nc3nc(=O)n(-c4cncc(Cl)c4)c(=O)n3Cc3cc(F)c(F)c(Cl)c3)ccc2n1 [II-0109] | 6.10 | 7.40 |  |  | 
Cc1cncc(-n2c(=O)nc(Nc3cc4oc(C)nc4cc3C)n(Cc3ccc(F)c(C#N)c3)c2=O)c1 [II-0110] |  |  | > 6.00 | > 7.00 | 
Cc1cncc(-n2c(=O)nc(Nc3ccc4nn(C)cc4c3)n(Cc3cc(F)c(F)cc3F)c2=O)c1 [II-0111] | 5.72 | 7.11 |  |  | 
Cn1cnc(Cn2c(=O)nc(Nc3cc4cn(CC(F)F)nc4cc3F)n(Cc3cc(F)c(F)c(F)c3)c2=O)n1 [II-0112] |  |  | 5.00 to 6.00 | > 7.00 | 
Cc1cncc(-n2c(=O)nc(Nc3cc4c(cc3Cl)OC(C)C4)n(Cc3ccc(F)c(C#N)c3)c2=O)c1 (stereo not shown) [II-0114] |  |  | > 6.00 | > 7.00 | 
Cc1cncc(-n2c(=O)nc(Nc3cc4cn(C)nc4cc3F)n(Cc3cc(C#N)ccc3C)c2=O)c1 [II-0115] |  |  | > 6.00 | > 7.00 | 
Cc1cncc(-n2c(=O)nc(Nc3cc4c(cc3Cl)OC(C)C4)n(Cc3ccc(F)c(C#N)c3)c2=O)c1 (stereo not shown) [II-0117] |  |  |  | > 7.00 | > 6.00
CCn1cc2cc(Nc3nc(=O)n(-c4cncc(C)c4)c(=O)n3Cc3ccc(F)c(C#N)c3)c(Cl)cc2n1 [II-0118] | 6.92 | 8.35 |  |  | 
Cc1cncc(-n2c(=O)nc(Nc3cc4cn(C)nc4cc3Cl)n(Cc3cc(F)c(F)c(Cl)c3)c2=O)c1 [II-0119] | 6.74 | 8.05 |  |  | 
Cn1cc2cc(Nc3nc(=O)n(-c4cncc(Cl)c4)c(=O)n3Cc3ccc(F)c(C#N)c3)c(Cl)cc2n1 [II-0120] | 6.90 | 8.05 |  |  | 
Cc1cncc(-n2c(=O)nc(Nc3cc4c(cc3Cl)OC(C)C4)n(Cc3ccc(F)c(C#N)c3)c2=O)c1 (stereo not shown) [II-0121] |  |  |  | > 7.00 | > 6.00
COc1cc(C)c(Nc2nc(=O)n(-c3cncc(C)c3)c(=O)n2Cc2ccc(F)c(C#N)c2)cn1 [II-0122] |  |  | 5.00 to 6.00 | > 7.00 | 
Cc1cncc(-n2c(=O)nc(Nc3cnc(OCC(F)F)cc3C)n(Cc3ccc(F)c(C#N)c3)c2=O)c1 [II-0123] |  |  | 5.00 to 6.00 | > 7.00 | 
Cc1cncc(-n2c(=O)nc(Nc3ccc4nn(C)cc4c3)n(Cc3cc(C#N)ccc3C)c2=O)c1 [II-0125] | 6.66 | 8.32 |  |  | 
CNc1nc2cc(Cl)c(Nc3nc(=O)n(-c4cncc(Cl)c4)c(=O)n3Cc3cc(C#N)c(F)cn3)cc2s1 [II-0126] |  |  | 5.00 to 6.00 | > 7.00 | 
CCn1cc2cc(Nc3nc(=O)n(-c4cncc(Cl)c4)c(=O)n3Cc3cc(C#N)c(F)cn3)c(Cl)cc2n1 [II-0127] |  |  | 5.00 to 6.00 | > 7.00 | 
N#Cc1cc(Cn2c(Nc3ccc4nc(NCC(F)F)sc4c3)nc(=O)n(-c3cncc(Cl)c3)c2=O)ccc1F [II-0129] |  |  | 5.00 to 6.00 | > 7.00 | 
Cc1cncc(-n2c(=O)nc(Nc3cc4cn(C)nc4cc3Cl)n(Cc3cc(F)c(F)c(C#N)c3)c2=O)c1 [II-0130] | 7.02 | 8.72 |  |  | 
Cc1cncc(-n2c(=O)nc(Nc3cc4c(cc3Cl)OCC4)n(Cc3cc(F)c(F)c(C#N)c3)c2=O)c1 [II-0131] |  |  | > 6.00 | > 7.00 | 
Cn1cnc(Cn2c(=O)nc(Nc3cc4cn(CC(=O)N5CCOCC5)nc4cc3Cl)n(Cc3cc(Cl)c(F)cc3F)c2=O)n1 [II-0132] | 4.30 | 8.60 |  |  | 

Compound | pEC50 (SARS-CoV-2; [1]) | pIC50 (SARS-CoV-2 3CL protease; RapidFire MS) | pEC50 (SARS-CoV-2; [2]) | pIC50 (SARS-CoV-2 3CL protease; given as class symbols) | pEC50 (SARS-CoV-2; class symbols)
Cc1cncc(-n2c(=O)nc(Nc3cc4cn(CCO)nc4cc3Cl)n(Cc3ccc(F)c(C#N)c3)c2=O)c1 [II-0140] |  |  | 5.00 to 6.00 | > 7.00 | 
Cc1cncc(-n2c(=O)nc(Nc3cc4c(cc3Cl)OCCC4)n(Cc3ccc(F)c(C#N)c3)c2=O)c1 [II-0144] |  |  | > 6.00 | > 7.00 | 
Cn1cc2cc(Nc3nc(=O)n(-c4cncc5ccccc45)c(=O)n3Cc3cc(F)c(F)c(C#N)c3)ccc2n1 [II-0154] |  |  | > 6.00 | > 7.00 | 
Cc1cncc(-n2c(=O)nc(Nc3cc4c(cc3Cl)OCC4)n(Cc3ccc(F)c(C#N)c3)c2=O)c1 [II-0156] |  |  | > 6.00 | > 7.00 | 
Cc1cncc(-n2c(=O)nc(Nc3cc4cn(C5COC5)nc4cc3Cl)n(Cc3ccc(F)c(C#N)c3)c2=O)c1 [II-0158] |  |  | 5.00 to 6.00 | > 7.00 | 
N#Cc1cc(Cn2c(Nc3ccc4c(c3)CCCO4)nc(=O)n(-c3cncc4ccccc34)c2=O)ccc1F [II-0159] |  |  | > 6.00 | > 7.00 | 
Cc1cc2c(cc1Nc1nc(=O)n(-c3cncc4ccccc34)c(=O)n1Cc1ccc(F)c(C#N)c1)CCO2 [II-0160] |  |  | > 6.00 | > 7.00 | 
Cc1cncc(-n2c(=O)nc(Nc3cc4cn(C)nc4cc3Cl)n(Cc3cc(F)cc(C#N)c3)c2=O)c1 [II-0161] |  |  | > 6.00 | > 7.00 | 
COc1ccc(Nc2nc(=O)n(-c3cncc(C)c3)c(=O)n2Cc2ccc(F)c(C#N)c2)c(C)c1 [II-0162] |  |  | > 6.00 | > 7.00 | 
Cn1cnc(Cn2c(=O)nc(Nc3cc4cn(CC(F)F)nc4cc3Cl)n(Cc3cc(F)c(F)cc3F)c2=O)n1 [II-0163] | 6.47 | 8.06 |  |  | 
Cc1cncc(-n2c(=O)nc(Nc3cc4cn(C)nc4cc3Cl)n(Cc3cc(F)c(F)c(F)c3F)c2=O)c1 [II-0164] | 6.71 | 8.05 |  |  | 
COc1ccc(Nc2nc(=O)n(-c3cncc(C)c3)c(=O)n2Cc2ccc(F)c(C#N)c2)c(Cl)c1 [II-0165] |  |  | > 6.00 | > 7.00 | 
Cc1cncc(-n2c(=O)nc(Nc3ccc4c(c3)CCCO4)n(Cc3ccc(F)c(C#N)c3)c2=O)c1 [II-0166] |  |  | > 6.00 | > 7.00 | 
Cc1cncc(-n2c(=O)nc(Nc3cc4cn(C)nc4cc3Br)n(Cc3ccc(F)c(C#N)c3)c2=O)c1 [II-0167] |  |  | > 6.00 | > 7.00 | 
CC(C)n1cc2cc(Nc3nc(=O)n(-c4cncc5ccccc45)c(=O)n3Cc3ccc(F)c(C#N)c3)ccc2n1 [II-0168] |  |  | > 6.00 | > 7.00 | 
COc1ccc(Nc2nc(=O)n(-c3cncc4ccccc34)c(=O)n2Cc2ccc(F)c(C#N)c2)c(C)c1 [II-0169] |  |  | > 6.00 | > 7.00 | 
Cc1cncc(-n2c(=O)nc(Nc3cc4cn(C)nc4cc3Cl)n(Cc3cccc(F)c3C)c2=O)c1 [II-0171] |  |  | > 6.00 | > 7.00 | 
Cc1cncc(-n2c(=O)nc(Nc3cc4c(cc3C)OCC4)n(Cc3ccc(F)c(C#N)c3)c2=O)c1 [II-0172] |  |  | > 6.00 | > 7.00 | 
Cc1cncc(-n2c(=O)nc(Nc3ccc4nn(C)cc4c3)n(Cc3ccc(F)c(C#N)c3)c2=O)c1 [II-0173] | 6.57 | 7.82 |  |  | 
COc1ccc(Nc2nc(=O)n(-c3cncc(C)c3)c(=O)n2Cc2ccc(F)c(C#N)c2)c(Br)c1 [II-0174] |  |  | > 6.00 | > 7.00 | 

Compound | pEC50 (SARS-CoV-2; [1]) | pIC50 (SARS-CoV-2 3CL protease; RapidFire MS) | pEC50 (SARS-CoV-2; [2]) | pIC50 (SARS-CoV-2 3CL protease; given as class symbols) | pEC50 (SARS-CoV-2; class symbols)
Cc1cncc(-n2c(=O)nc(Nc3cc4cn(C)nc4cc3Cl)n(Cc3ccc(F)c(F)c3F)c2=O)c1 [II-0175] |  |  | > 6.00 | > 7.00 | 
Cc1nc2ccc(Nc3nc(=O)n(-c4cncc5ccccc45)c(=O)n3Cc3ccc(F)c(C#N)c3)cc2o1 [II-0176] |  |  | > 6.00 | > 7.00 | 
Cc1cncc(-n2c(=O)nc(Nc3cc4cn(C)nc4cc3Cl)n(Cc3cc(F)cc(Cl)c3)c2=O)c1 [II-0177] |  |  | > 6.00 | > 7.00 | 
COc1ccc(Nc2nc(=O)n(-c3cncc4ccccc34)c(=O)n2Cc2ccc(F)c(C#N)c2)c(F)c1 [II-0178] |  |  | > 6.00 | > 7.00 | 
Cn1cnc(Cn2c(=O)nc(Nc3cc4cn(C)nc4cc3Cl)n(Cc3ccc(F)c(Br)c3)c2=O)n1 [II-0179] |  |  | 5.00 to 6.00 | > 7.00 | 
COc1ccc(Nc2nc(=O)n(-c3cncc(C)c3)c(=O)n2Cc2ccc(F)c(C#N)c2)c(F)c1 [II-0180] |  |  | > 6.00 | > 7.00 | 
Cc1cncc(-n2c(=O)nc(Nc3cc4cn(C)nc4cc3Cl)n(Cc3cc(C#N)ccc3Cc3cccc(Cl)c3)c2=O)c1 [II-0181] |  |  | > 6.00 | > 7.00 | 
COc1ccc(Nc2nc(=O)n(-c3cncc(C)c3)c(=O)n2Cc2ccc(F)c(C#N)c2)cc1 [II-0182] |  |  | > 6.00 | > 7.00 | 
Cc1cncc(-n2c(=O)nc(Nc3ccc4nn(C)nc4c3)n(Cc3ccc(F)c(C#N)c3)c2=O)c1 [II-0183] |  |  | > 6.00 | > 7.00 | 
Cn1cnc(Cn2c(=O)nc(Nc3cc4cn(C)nc4cc3Cl)n(Cc3cc(F)c(F)c(C#N)c3)c2=O)n1 [II-0184] |  |  | 5.00 to 6.00 | > 7.00 | 
Cc1cncc(-n2c(=O)nc(Nc3cc4cn(C)nc4cc3Cl)n(Cc3ccc(F)cc3F)c2=O)c1 [II-0185] |  |  | > 6.00 | > 7.00 | 
Cc1cncc(-n2c(=O)nc(Nc3cc4cn(C)nc4cc3Cl)n(Cc3cc(Cl)cc(C#N)c3)c2=O)c1 [II-0186] |  |  | 5.00 to 6.00 | > 7.00 | 
Cc1cncc(-n2c(=O)nc(Nc3cc4cn(C)nc4cc3Cl)n(Cc3cccc(F)c3F)c2=O)c1 [II-0187] |  |  | > 6.00 | > 7.00 | 
Cc1cncc(-n2c(=O)nc(Nc3cc4cn(C)nc4cc3Cl)n(Cc3cccc(F)c3Cl)c2=O)c1 [II-0188] |  |  | > 6.00 | > 7.00 | 
Cn1cnc(Cn2c(=O)nc(Nc3cc4cn(C)nc4cc3Cl)n(Cc3cc(F)cc(F)c3F)c2=O)n1 [II-0189] |  |  | 5.00 to 6.00 | > 7.00 | 
Cn1cnc(Cn2c(=O)nc(Nc3cc4cn(C)nc4cc3Cl)n(Cc3ccc(F)c(F)c3F)c2=O)n1 [II-0190] |  |  | 5.00 to 6.00 | > 7.00 | 
Cc1cncc(-n2c(=O)nc(Nc3cc4sc(C)nc4cc3C)n(Cc3ccc(F)c(C#N)c3)c2=O)c1 [II-0191] |  |  | > 6.00 | > 7.00 | 
Cc1nc2cc(C)c(Nc3nc(=O)n(-c4cncc5ccccc45)c(=O)n3Cc3ccc(F)c(C#N)c3)cc2o1 [II-0192] | 6.34 | 7.43 |  |  | 
Cc1cncc(-n2c(=O)nc(Nc3cc4sc(C)nc4cc3Cl)n(Cc3ccc(F)c(C#N)c3)c2=O)c1 [II-0193] |  |  | 5.00 to 6.00 | > 7.00 | 

Source: patent US12559474B2, “Triazine derivatives having virus replication inhibitory activity and pharmaceutical composition comprising the same” (priority 2021, dated 2026)
